# According to patent US20260265265A1, “NOVEL BENZIMIDAZOLONE DERIVATIVE COMPOUND AS AUTOTAXIN INHIBITOR” (LG CHEM, LTD., priority 2023, published 2026):
# Biological target: T1, Recombinant Human ENPP-2/Autotaxin (Homo sapiens, UniProt Q13822)
# T1 construct: purchased R&D systems 5255-EN
# Assay: LysoPLD activity measurement (autotaxin enzyme inhibition, choline release, TOOS reagent)
# Assay type: biochemical
# Conditions: LysoPLD inhibitory activity; substrate 14:0 LysoPC; absorbance at 555 nm
# How it was run: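 Autotaxin lysoPLD activity was read as choline released from 14:0 LysoPC, detected by TOOS reagent absorbance. Compound was preincubated 30 min, then substrate diluted to 300 μM was added and the reaction ran 90 minutes at 37° C. Controls contained 1% DMSO.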
row,SMILES,IC50 [nM]
1,"CCCc1ccc(-n2c(=O)n(C3(c4cccc(C(=O)O)c4)CC3)c3ccc(Cl)cc32)cc1 [Example 31, 3-(1-(5-chloro-2-oxo-3-(4-propylphenyl)-2,3-dihydro-1H-benzo[d]imidazol-1-yl)cyclopropyl)benzoic acid]",10 to 100
2,"O=C(O)c1cccc(Cn2c(=O)n(-c3ccc(N4CCOCC4)cc3)c3c(F)c(Cl)ccc32)c1 [Example 24, 3-((5-chloro-4-fluoro-3-(4-morpholinophenyl)-2-oxo-2,3-dihydro-1H-benzo[d]imidazol-1-yl)methyl)benzoic acid]",10 to 100
3,"CCC(=O)N1CCC(c2ccc(-n3c(=O)n(Cc4cccc(C(=O)O)c4)c4ccc(Cl)cc43)cc2)CC1 [Example 102, 3-((5-chloro-2-oxo-3-(4-(1-propionylpiperidin-4-yl)phenyl)-2,3-dihydro-1H-benzo[d]imidazol-1-yl)methyl)benzoic acid]",10 to 100
4,"CC(C)Oc1ccc(-n2c(=O)n(Cc3cccc(C(=O)O)c3F)c3ccc(Cl)cc32)cc1 [Example 40, 3-((5-chloro-3-(4-isopropoxyphenyl)-2-oxo-2,3-dihydro-1H-benzo[d]imidazol-1-yl)methyl)-2-fluorobenzoic acid]",10 to 100
5,"O=C(O)c1cccc(Cn2c(=O)n(-c3ccc(C4=CCCCC4)cc3)c3cc(Cl)ccc32)c1 [Example 109, 3-((5-chloro-2-oxo-3-(2′,3′,4′,5′-tetrahydro-[1,1′-biphenyl]-4-yl)-2,3-dihydro-1H-benzo[d]imidazol-1-yl)methyl)benzoic acid]",100 to 1000
6,"O=C(O)c1cccc(Cn2c(=O)n(-c3ccc(N4CCC(F)(F)CC4)cc3)c3cc(Cl)ccc32)c1F [Example 118, 3-((5-chloro-3-(4-(4,4-difluoropiperidin-1-yl)phenyl)-2-oxo-2,3-dihydro-1H-benzo[d]imidazol-1-yl)methyl)-2-fluorobenzoic acid]",10 to 100
7,"CCOc1ccc(-n2c(=O)n(Cc3cccc(C(=O)O)c3)c3ccc(Cl)cc32)cn1 [Example 75, 3-((5-chloro-3-(6-ethoxypyridin-3-yl)-2-oxo-2,3-dihydro-1H-benzo[d]imidazol-1-yl)methyl)benzoic acid]",100 to 1000
8,"O=C(O)c1cccc(Cn2c(=O)n(-c3ccc(O)cc3)c3cc(Cl)ccc32)c1 [Example 13, 3-((5-chloro-3-(4-hydroxyphenyl)-2-oxo-2,3-dihydro-1H-benzo[d]imidazol-1-yl)methyl)benzoic acid]",100 to 1000
9,"O=C(O)c1cccc(Cn2c(=O)n(-c3ccc(NS(=O)(=O)CC(F)(F)F)cc3)c3cc(Cl)ccc32)c1 [Example 26, 3-((5-chloro-2-oxo-3-(4-((2,2,2-trifluoroethyl)sulfonamido)phenyl)-2,3-dihydro-1H-benzo[d]imidazol-1-yl)methyl)benzoic acid]",100 to 1000

# More lines, now with the values ahead:
row,IC50 [nM],SMILES
1,< 10,"O=C(O)c1cccc(C2(n3c(=O)n(-c4ccc(C(=O)N5CC6(CCOCC6)C5)cc4)c4cc(Cl)cnc43)CC2)c1 [Example 225, 3-(1-(1-(4-(7-oxa-2-azaspiro[3.5]nonane-2-carbonyl)phenyl)-6-chloro-2-oxo-1,2-dihydro-3H-imidazo[4,5-b]pyridin-3-yl)cyclopropyl)benzoic acid]"
2,10 to 100,"O=C(O)c1cccc(Cn2c(=O)n(-c3ccc(N4CC(O)C4)cc3)c3c(F)c(Cl)ccc32)c1F [Example 120, 3-((5-chloro-4-fluoro-3-(4-(3-hydroxyazetidin-1-yl)phenyl)-2-oxo-2,3-dihydro-1H-benzo[d]imidazol-1-yl)methyl)-2-fluorobenzoic acid]"
3,10 to 100,"O=C(O)c1cccc(C2(n3c(=O)n(-c4ccc(C5CCOCC5)cc4)c4cc(Cl)cnc43)CC2)c1F [Example 228, 3-(1-(6-chloro-2-oxo-1-(4-(tetrahydro-2H-pyran-4-yl)phenyl)-1,2-dihydro-3H-imidazo[4,5-b]pyridin-3-yl)cyclopropyl)-2-fluorobenzoic acid]"
4,< 10,"CN1CCN(Cc2ccc(-n3c(=O)n(C4(c5cccc(C(=O)O)c5)CC4)c4ccc(Cl)cc43)cc2)C1=O [Example 241, 3-(1-(5-chloro-3-(4-((3-methyl-2-oxoimidazolin-1-yl)methyl)phenyl)-2-oxo-2,3-dihydro-1H-benzo[d]imidazol-1-yl)cyclopropyl)benzoic acid]"
5,< 10,"O=C(O)c1cccc(C2(n3c(=O)n(-c4ccc(N5CCOCC5)cc4)c4cc(Cl)ccc43)CC2)c1 [Example 147, 3-(1-(5-chloro-3-(4-morpholinophenyl)-2-oxo-2,3-dihydro-1H-benzo[d]imidazol-1-yl)cyclopropyl)benzoic acid]"
